Patent US5688773A, “Method of selectively destroying neoplastic cells” (priority 1994, dated 1997)

System: C6-P450 cells
Assay: Cell proliferation assay

O=P1(N(CCCl)CCCl)NCCCO1 (stereo not drawn) [cyclophosphamide]
Growth inhibition (0.5 mM CPA, 10 days): complete growth inhibition | Effect on cell proliferation (0.5 mM, four days): complete inhibition of cell proliferation | Cell proliferation assay, number of cells (Table V panel A, 0.5 mM, four days): 1.15±0.11 ×10^6
